# Assay results reported in ChEMBL document CHEMBL3085684, “Unraveling phosphodiesterase surfaces. Identification of phosphodiesterase 7 allosteric modulation cavities” (Eur J Med Chem, 2013).
# Calls of active or inactive are those of the source. The calls are words filed in the database; no cut-off is given here.
# Target: T1, High affinity 3',5'-cyclic-AMP phosphodiesterase 7A (Homo sapiens, UniProt Q13946)
# Test: Inhibition of human recombinant PDE7A1 using […] after 20 mins by scintillation proximity assay
# T1 sequence (Q13946 whole entry): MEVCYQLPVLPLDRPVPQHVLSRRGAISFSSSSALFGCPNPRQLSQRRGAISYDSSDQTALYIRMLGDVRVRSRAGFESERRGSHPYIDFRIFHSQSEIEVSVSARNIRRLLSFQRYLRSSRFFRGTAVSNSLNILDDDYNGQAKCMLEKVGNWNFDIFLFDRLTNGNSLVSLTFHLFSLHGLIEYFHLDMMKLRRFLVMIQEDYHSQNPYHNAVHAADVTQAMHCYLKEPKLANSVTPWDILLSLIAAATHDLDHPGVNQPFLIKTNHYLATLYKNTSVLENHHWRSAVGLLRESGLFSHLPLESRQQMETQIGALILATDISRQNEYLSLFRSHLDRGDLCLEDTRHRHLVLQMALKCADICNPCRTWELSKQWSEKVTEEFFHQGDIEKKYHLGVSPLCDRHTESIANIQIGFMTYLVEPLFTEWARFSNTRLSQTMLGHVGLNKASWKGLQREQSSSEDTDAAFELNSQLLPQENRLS
row,SMILES,IC50
1,CSc1nc2ccccc2c(=S)n1-c1ccccc1Br,5.33 µM
2,CSc1nc2c(C)cccc2c(=O)n1-c1ccccc1Br,1.69 µM
3,Fc1cccc(F)c1-n1c(=S)[nH]c2ccccc2c1=S,0.48 µM
4,CSc1nc2c(Cl)cccc2c(=O)n1-c1c(F)cccc1F,15.2 µM
5,CSc1nc2ccccc2c(=S)n1-c1c(F)cccc1F,3.23 µM
6,Cc1cccc2c(=O)n(-c3c(F)cccc3F)c(=S)[nH]c12,9.3 µM
7,CSc1nc2ccc(Br)cc2c(=O)n1-c1ccc(F)c(F)c1F,5.07 µM
8,O=c1c2ccccc2[nH]c(=S)n1-c1ccc(F)c(F)c1F,7.02 µM

# Target: T1, High affinity 3',5'-cyclic-AMP phosphodiesterase 7A
# Test: Competitive inhibition of human recombinant PDE7A1 using […] after 20 mins by Lineweaver-Burk plot analysis
row,SMILES,competitive inhibition (Lineweaver-Burk)
1,CC(C)Cn1c(=O)n(C)c(=O)c2nc[nH]c21,Active
2,CSc1nc2ccccc2c(=O)n1-c1c(F)cccc1F,Active
3,CCSc1nc2ccccc2c(=O)n1-c1ccccc1,Active
4,O=c1c2ccccc2nc(SCc2ccccc2)n1-c1ccccc1,Active

# Target: T1, High affinity 3',5'-cyclic-AMP phosphodiesterase 7A
# Test: Non-competitive mixed type inhibition of human recombinant PDE7A1 using […] after 20 mins by Lineweaver-Burk plot analysis
row,SMILES,inhibition
1,O=c1c2ccccc2[nH]c(=S)n1-c1ccccc1,Active
2,S=c1[nH]c2ccccc2c(=S)n1-c1ccccc1,Active
